According to ChEMBL document CHEMBL1201862, “PubChem BioAssay data set” (2004):
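Cells were grown in 96-well plates and exposed to each compound for 48 hours at five concentrations; endpoints were interpolated linearly between bracketing concentrations, or set to the highest concentration if not reached. GI50 = concentration required for 50% inhibition of growth.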 Activity calls are given as the source filed them. Cut-off read from the data, not from the text of the source: active = GI50 up to about 1.1 µM and inactive = higher.

Legend:
Assay in all cases: NCI-60 cell line screen, 48 h
[1] = tested on: SR
[2] = tested on: Malme-3M
[3] = tested on: HL-60
[4] = tested on: OVCAR-5
[5] = tested on: SN12C
[6] = tested on: MCF7
[7] = tested on: NCI-H226
[8] = tested on: MDA-MB-231
[9] = tested on: CAKI-1
[10] = tested on: SF-539
[11] = tested on: Hs-578T
[12] = tested on: COLO 205
[13] = tested on: PC-3
[14] = tested on: TK-10
[15] = tested on: SK-MEL-28
[16] = tested on: UO-31
[17] = tested on: T47D
[18] = tested on: MDA-N
[19] = tested on: HOP-62
[20] = tested on: OVCAR-4

With `COc1cc([C@@H]2C3C(=O)c4ccccc4C3[C@@H](c3cc(OC)c(OC)c(OC)c3)C23Cc2ccccc2C3=O)cc(OC)c1OC` (stereo not given in full) the GI50 [1] was > 100 µM (inactive), the GI50 [2] was > 100 µM (inactive) and the GI50 [3] was > 100 µM (inactive). The GI50 [4] was > 100 µM (inactive), the GI50 [5] was > 100 µM (inactive) and the GI50 [6] was 15.4 µM (inactive). For the same molecule, the GI50 [7] was > 100 µM (inactive), the GI50 [8] was > 100 µM (inactive) and the GI50 [9] was 2.75 µM (inactive). For the same molecule, the GI50 [10] was > 100 µM (inactive), the GI50 [11] was > 100 µM (inactive) and the GI50 [12] was > 100 µM (inactive). For the same molecule, the GI50 [13] was > 100 µM (inactive), the GI50 [14] was > 100 µM (inactive) and the GI50 [15] was > 100 µM (inactive). The GI50 [16] was > 100 µM (inactive), the GI50 [17] was > 100 µM (inactive) and the GI50 [18] was > 100 µM (inactive). For the same molecule, the GI50 [19] was > 100 µM (inactive) and the GI50 [20] was > 100 µM (inactive).

With `COc1cccc2c1C(=O)OC2c1cccc2ccccc12` (stereo not given) the GI50 [1] was > 100 µM (inactive), the GI50 [2] was > 100 µM (inactive) and the GI50 [3] was > 46.6 µM (inactive). For the same molecule, the GI50 [4] was > 100 µM (inactive), the GI50 [5] was > 100 µM (inactive) and the GI50 [6] was 31.6 µM (inactive). The GI50 [7] was 92.9 µM (inactive), the GI50 [8] was 36.4 µM (inactive) and the GI50 [9] was > 100 µM (inactive). The GI50 [10] was 63.7 µM (inactive), the GI50 [11] was 33 µM (inactive) and the GI50 [12] was > 100 µM (inactive). For the same molecule, the GI50 [13] was > 100 µM (inactive), the GI50 [14] was > 73.3 µM (inactive) and the GI50 [15] was > 100 µM (inactive). For the same molecule, the GI50 [16] was > 100 µM (inactive), the GI50 [17] was > 100 µM (inactive) and the GI50 [18] was > 100 µM (inactive). For the same molecule, the GI50 [19] was 36 µM (inactive) and the GI50 [20] was 37.8 µM (inactive).

For `CC(=O)Nc1cc(C(=O)Nc2cc(C(=O)N3CC(CCl)c4c3cc(N)c3ccccc43)nn2C)nn1C` (stereo not given), the GI50 [1] was < 0.01 µM (active), the GI50 [2] was 0.115 µM (active) and the GI50 [3] was < 0.01 µM (active). For the same molecule, the GI50 [4] was 0.31 µM (active), the GI50 [5] was < 0.01 µM (active) and the GI50 [6] was 0.168 µM (active). For the same molecule, the GI50 [7] was < 0.0232 µM (active), the GI50 [8] was 0.185 µM (active) and the GI50 [9] was < 0.0393 µM (active). The GI50 [10] was 0.0191 µM (active), the GI50 [11] was 0.176 µM (active) and the GI50 [12] was 0.112 µM (active). For the same molecule, the GI50 [13] was 0.101 µM (active), the GI50 [14] was 0.251 µM (active) and the GI50 [15] was 0.0782 µM (active). For the same molecule, the GI50 [16] was 0.294 µM (active), the GI50 [17] was < 0.01 µM (active) and the GI50 [18] was 0.133 µM (active). For the same molecule, the GI50 [19] was 0.101 µM (active) and the GI50 [20] was 0.171 µM (active).

With `Cc1ccc(S(=O)(=O)n2ccn3c(=O)cc(C)nc23)cc1` the GI50 [1] was > 10 µM (inactive), the GI50 [2] was > 10 µM (inactive) and the GI50 [3] was > 10 µM (inactive). The GI50 [4] was > 10 µM (inactive), the GI50 [5] was > 10 µM (inactive) and the GI50 [6] was > 10 µM (inactive). For the same molecule, the GI50 [7] was > 10 µM (inactive), the GI50 [8] was > 10 µM (inactive) and the GI50 [9] was > 10 µM (inactive). For the same molecule, the GI50 [10] was > 10 µM (inactive), the GI50 [11] was 8.59 µM (inactive) and the GI50 [12] was > 10 µM (inactive). The GI50 [13] was > 10 µM (inactive), the GI50 [14] was > 10 µM (inactive) and the GI50 [15] was > 10 µM (inactive). For the same molecule, the GI50 [16] was > 10 µM (inactive), the GI50 [17] was > 10 µM (inactive) and the GI50 [18] was > 10 µM (inactive). For the same molecule, the GI50 [19] was > 10 µM (inactive) and the GI50 [20] was > 10 µM (inactive).

`O=C1c2ccccc2C(=O)[C@@]23O[C@@]12C1(Oc2cccc4cccc(c24)O1)[C@@H]1O[C@@H]1[C@@H]3O` was tested, and the GI50 [1] was 1.43 µM (inactive), the GI50 [2] was 13.4 µM (inactive) and the GI50 [3] was 1.66 µM (inactive). For the same molecule, the GI50 [4] was 17.8 µM (inactive), the GI50 [5] was 11.6 µM (inactive) and the GI50 [6] was 3.66 µM (inactive). For the same molecule, the GI50 [7] was 8.39 µM (inactive), the GI50 [8] was 14.8 µM (inactive) and the GI50 [9] was 11.1 µM (inactive). For the same molecule, the GI50 [10] was 2.64 µM (inactive), the GI50 [11] was 14.9 µM (inactive) and the GI50 [12] was 9.91 µM (inactive). For the same molecule, the GI50 [13] was 15.2 µM (inactive), the GI50 [14] was 11.3 µM (inactive) and the GI50 [15] was 20.6 µM (inactive). For the same molecule, the GI50 [16] was 9.18 µM (inactive), the GI50 [17] was 9.16 µM (inactive) and the GI50 [18] was 9.46 µM (inactive). For the same molecule, the GI50 [19] was 12.6 µM (inactive) and the GI50 [20] was 4.19 µM (inactive).
